Measured values published in US9067922B2, “Chemical compounds” (Pfizer Limited, priority 2013, dated 2015).

Target: URAT-1 transporter (Homo sapiens (Human), UniProt Q96S37)
Assay: URAT-1 inhibitor activity: [14C]-uric acid uptake in CHO-URAT1(L)GFP#8 (CHO#8) cells, scintillation proximity
Assay type: cell-based
Conditions: inhibition of [14C]-uric acid (30 nM) uptake into CHO#8 cells; compound 0 to 10 μM; 4 parameter logistic fit
How it was run: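 CHO cells stably expressing human URAT1 long isoform–eGFP fusion, pre-incubated 1 h in chloride-containing buffer pH 7.4, then given 30 nM [14C]-uric acid with compound (0–10 μM, 0.25% DMSO) in chloride-free gluconate buffer pH 7.4. Uptake measured by scintillation proximity on Cytostar plates.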

Chain of URAT-1 transporter (Q96S37 other isoform, or with tags, fused parts or gaps): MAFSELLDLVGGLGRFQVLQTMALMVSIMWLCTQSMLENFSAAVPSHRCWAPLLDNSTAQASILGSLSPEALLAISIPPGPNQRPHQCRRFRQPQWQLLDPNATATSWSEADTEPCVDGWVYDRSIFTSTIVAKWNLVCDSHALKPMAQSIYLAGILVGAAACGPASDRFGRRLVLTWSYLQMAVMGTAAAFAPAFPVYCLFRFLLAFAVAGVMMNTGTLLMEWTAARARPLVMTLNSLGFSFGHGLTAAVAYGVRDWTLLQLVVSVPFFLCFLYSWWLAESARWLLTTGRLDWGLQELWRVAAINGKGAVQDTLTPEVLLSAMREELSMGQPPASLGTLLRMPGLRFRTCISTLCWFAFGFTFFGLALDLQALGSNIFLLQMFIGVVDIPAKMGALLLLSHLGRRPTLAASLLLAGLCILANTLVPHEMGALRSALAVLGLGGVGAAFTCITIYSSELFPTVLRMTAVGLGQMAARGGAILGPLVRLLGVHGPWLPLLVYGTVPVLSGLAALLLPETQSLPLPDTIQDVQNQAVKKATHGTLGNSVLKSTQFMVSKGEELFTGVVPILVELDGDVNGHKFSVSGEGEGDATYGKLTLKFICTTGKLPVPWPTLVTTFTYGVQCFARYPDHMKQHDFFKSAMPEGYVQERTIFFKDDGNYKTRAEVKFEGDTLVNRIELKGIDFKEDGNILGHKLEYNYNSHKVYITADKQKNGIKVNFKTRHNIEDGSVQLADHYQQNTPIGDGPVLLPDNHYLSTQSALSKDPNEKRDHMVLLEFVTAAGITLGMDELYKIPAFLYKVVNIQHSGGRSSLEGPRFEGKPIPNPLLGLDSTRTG

Row | SMILES | IC50
1 | Cc1c(F)ccc(Oc2ccc(S(=O)(=O)Nc3ccc(F)cn3)cc2C#N)c1C [Example 172, 3-cyano-4-(4-fluoro-2,3-dimethylphenoxy)-N-(5-fluoropyridin-2-yl)benzenesulfonamide] | 502 nM
2 | COc1c(Oc2ccc(S(=O)(=O)Nc3ccc(F)cn3)cc2C#N)ccc(F)c1C [Example 173, 3-cyano-4-(4-fluoro-2-methoxy-3-methylphenoxy)-N-(5-fluoropyridin-2-yl)benzenesulfonamide] | 131 nM
3 | Cc1ccc(C(C)C)cc1Oc1ccc(S(=O)(=O)Nc2ccc(F)cn2)cc1C#N [Example 174, 3-cyano-N-(5-fluoropyridin-2-yl)-4-[2-methyl-5-(propan-2-yl)phenoxy]benzenesulfonamide] | > 10000 nM
4 | Cc1ccc(Oc2ccc(S(=O)(=O)Nc3ccc(F)cn3)cc2C#N)c(C)c1Cl [Example 175, 4-(3-chloro-2,4-dimethylphenoxy)-3-cyano-N-(5-fluoropyridin-2-yl)benzenesulfonamide] | 455 nM
5 | N#Cc1cc(S(=O)(=O)Nc2ccc(F)cn2)ccc1Oc1cc(F)ccc1Cl [Example 176, 4-(2-chloro-5-fluorophenoxy)-3-cyano-N-(5-fluoropyridin-2-yl)benzenesulfonamide] | 1020 nM
6 | N#Cc1cc(S(=O)(=O)Nc2ccc(F)cn2)ccc1Oc1cc(F)c(F)cc1Cl [Example 177, 4-(2-chloro-4,5-difluorophenoxy)-3-cyano-N-(5-fluoropyridin-2-yl)benzenesulfonamide] | 246 nM
7 | Cc1ccc(Oc2ccc(S(=O)(=O)Nc3ccc(F)cn3)cc2C#N)c(Cl)c1C [Example 178, 4-(2-chloro-3,4-dimethylphenoxy)-3-cyano-N-(5-fluoropyridin-2-yl)benzenesulfonamide] | > 10000 nM
8 | N#Cc1cc(S(=O)(=O)Nc2ccc(F)cn2)ccc1Oc1cnc(C2CC2)c(Cl)c1 [Example 180, 4-[(5-chloro-6-cyclopropylpyridin-3-yl)oxy]-3-cyano-N-(5-fluoropyridin-2-yl)benzenesulfonamide] | 877 nM
9 | COc1cc(C)cc(Oc2ccc(S(=O)(=O)Nc3ccc(F)cn3)cc2C#N)c1 [Example 182, 3-cyano-N-(5-fluoropyridin-2-yl)-4-(3-methoxy-5-methylphenoxy)benzenesulfonamide] | 175 nM
10 | Cc1ncccc1Oc1ccc(S(=O)(=O)Nc2ccc(F)cn2)cc1C#N [Example 184, 3-cyano-N-(5-fluoropyridin-2-yl)-4-[(2-methylpyridin-3-yl)oxy]benzenesulfonamide] | 385 nM
11 | N#Cc1cc(S(=O)(=O)Nc2ccc(F)cn2)ccc1Oc1ccccn1 [Example 187, 3-cyano-N-(5-fluoropyridin-2-yl)-4-(pyridin-2-yloxy)benzenesulfonamide] | > 10000 nM
12 | N#Cc1cc(S(=O)(=O)Nc2ccc(F)cn2)ccc1Oc1ccccc1Br [Example 189, 4-(2-bromophenoxy)-3-cyano-N-(5-fluoropyridin-2-yl)benzenesulfonamide] | 103 nM
13 | COc1ccncc1Oc1ccc(S(=O)(=O)Nc2ccc(F)cn2)cc1C#N [Example 190, 3-cyano-N-(5-fluoropyridin-2-yl)-4-[(4-methoxypyridin-3-yl)oxy]benzenesulfonamide] | > 10000 nM
14 | N#Cc1cc(S(=O)(=O)Nc2ccc(F)cn2)ccc1Oc1cccnc1 [Example 194, 3-cyano-N-(5-fluoropyridin-2-yl)-4-(pyridin-3-yloxy)benzenesulfonamide] | > 10000 nM
15 | N#Cc1cc(S(=O)(=O)Nc2ccc(F)cn2)ccc1Oc1ccc(C(F)(F)F)nc1 [Example 196, 3-cyano-N-(5-fluoropyridin-2-yl)-4-{[6-(trifluoromethyl)pyridin-3-yl]oxy}benzenesulfonamide] | > 10000 nM
16 | COc1ccc(C#N)cc1Oc1ccc(S(=O)(=O)Nc2ccc(F)cn2)cc1C#N [Example 197, 3-cyano-4-(5-cyano-2-methoxyphenoxy)-N-(5-fluoropyridin-2-yl)benzenesulfonamide] | > 10000 nM
17 | Cc1ccncc1Oc1ccc(S(=O)(=O)Nc2ccc(F)cn2)cc1C#N [Example 198, 3-cyano-N-(5-fluoropyridin-2-yl)-4-[(4-methylpyridin-3-yl)oxy]benzenesulfonamide] | 792 nM
18 | COc1ccc(C)c(Oc2ccc(S(=O)(=O)Nc3ccc(F)cn3)cc2C#N)c1 [Example 200, 3-cyano-N-(5-fluoropyridin-2-yl)-4-(5-methoxy-2-methylphenoxy)benzenesulfonamide] | 53 nM
19 | COc1ccc(Oc2ccc(S(=O)(=O)Nc3ccc(F)cn3)cc2C#N)c(C)c1 [Example 201, 3-cyano-N-(5-fluoropyridin-2-yl)-4-(4-methoxy-2-methylphenoxy)benzenesulfonamide] | 74 nM
20 | N#Cc1cc(S(=O)(=O)Nc2ccc(F)cn2)ccc1Oc1cncc(Cl)c1 [Example 202, 4-[(5-chloropyridin-3-yl)oxy]-3-cyano-N-(5-fluoropyridin-2-yl)benzenesulfonamide] | 37 nM
21 | N#Cc1cc(S(=O)(=O)Nc2ccc(F)cn2)ccc1Oc1ccc(C#N)c(C2CC2)c1 [Example 203, 3-cyano-4-(4-cyano-3-cyclopropylphenoxy)-N-(5-fluoropyridin-2-yl)benzenesulfonamide] | 37 nM
22 | COc1cc(C#N)ccc1Oc1ccc(S(=O)(=O)Nc2ccc(F)cn2)cc1C#N [Example 204, 3-cyano-4-(4-cyano-2-methoxyphenoxy)-N-(5-fluoropyridin-2-yl)benzenesulfonamide] | > 10000 nM
23 | N#Cc1cncc(Oc2ccc(S(=O)(=O)Nc3ccc(F)cn3)cc2C#N)c1 [Example 206, 3-cyano-4-[(5-cyanopyridin-3-yl)oxy]-N-(5-fluoropyridin-2-yl)benzenesulfonamide] | 1080 nM
24 | CC(C)Oc1ccccc1Oc1ccc(S(=O)(=O)Nc2ccc(F)cn2)cc1C#N [Example 207, 3-cyano-N-(5-fluoropyridin-2-yl)-4-[2-(propan-2-yloxy)phenoxy]benzenesulfonamide] | > 10000 nM

More lines, now with the values ahead:

Row | IC50 | SMILES
25 | > 728 nM | N#Cc1cc(S(=O)(=O)Nc2ccc(F)cn2)ccc1Oc1cccc(Cl)c1C#N [Example 179, 4-(3-chloro-2-cyanophenoxy)-3-cyano-N-(5-fluoropyridin-2-yl)benzenesulfonamide]
26 | > 10000 nM | COc1cccc(Oc2ccc(S(=O)(=O)Nc3ccc(F)cn3)cc2C#N)c1C [Example 181, 3-cyano-N-(5-fluoropyridin-2-yl)-4-(3-methoxy-2-methylphenoxy)benzenesulfonamide]
27 | 183 nM | N#Cc1cc(S(=O)(=O)Nc2ccc(F)cn2)ccc1Oc1ccc(F)cc1 [Example 183, 3-cyano-4-(4-fluorophenoxy)-N-(5-fluoropyridin-2-yl)benzenesulfonamide]
28 | 324 nM | Cc1ccccc1Oc1ccc(S(=O)(=O)Nc2ccc(F)cn2)cc1C#N [Example 186, 3-cyano-N-(5-fluoropyridin-2-yl)-4-(2-methylphenoxy)benzenesulfonamide]
29 | 3740 nM | COc1ccc(Oc2ccc(S(=O)(=O)Nc3ccc(F)cn3)cc2C#N)cc1 [Example 188, 3-cyano-N-(5-fluoropyridin-2-yl)-4-(4-methoxyphenoxy)benzenesulfonamide]
30 | 1990 nM | Cc1ccc(Oc2ccc(S(=O)(=O)Nc3ccc(F)cn3)cc2C#N)cc1 [Example 191, 3-cyano-N-(5-fluoropyridin-2-yl)-4-(4-methylphenoxy)benzenesulfonamide]
31 | 129 nM | COc1ccc(Oc2ccc(S(=O)(=O)Nc3ccc(F)cn3)cc2C#N)cn1 [Example 199, 3-cyano-N-(5-fluoropyridin-2-yl)-4-[(6-methoxypyridin-3-yl)oxy]benzenesulfonamide]
32 | 2630 nM | N#Cc1ccc(Oc2ccc(S(=O)(=O)Nc3ccc(F)cn3)cc2C#N)cn1 [Example 205, 3-cyano-4-[(6-cyanopyridin-3-yl)oxy]-N-(5-fluoropyridin-2-yl)benzenesulfonamide]
33 | > 10000 nM | COc1cccc(Oc2ccc(S(=O)(=O)Nc3ccc(F)cn3)cc2C#N)c1 [Example 208, 3-cyano-N-(5-fluoropyridin-2-yl)-4-(3-methoxyphenoxy)benzenesulfonamide]
34 | > 10000 nM | Cc1ccnc(NS(=O)(=O)c2ccc(Oc3cccc(Cl)c3C#N)cc2)c1 [Example 216, 4-(3-chloro-2-cyanophenoxy)-N-(4-methylpyridin-2-yl)benzenesulfonamide]
35 | > 10000 nM | N#Cc1c(Cl)cccc1Oc1ccc(S(=O)(=O)Nc2ccncc2)cc1 [Example 217, 4-(3-chloro-2-cyanophenoxy)-N-(pyridin-4-yl)benzenesulfonamide]
36 | > 10000 nM | N#Cc1c(Cl)cccc1Oc1ccc(S(=O)(=O)Nc2ccccn2)cc1 [Example 218, 4-(3-chloro-2-cyanophenoxy)-N-(pyridin-2-yl)benzenesulfonamide]
37 | > 10000 nM | N#Cc1c(Cl)cccc1Oc1ccc(S(=O)(=O)Nc2cccnc2)cc1 [Example 219, 4-(3-chloro-2-cyanophenoxy)-N-(pyridin-3-yl)benzenesulfonamide]
38 | > 10000 nM | Cc1ccnc(NS(=O)(=O)c2ccc(Oc3cccc(Cl)c3C#N)cc2)n1 [Example 220, 4-(3-chloro-2-cyanophenoxy)-N-(4-methylpyrimidin-2-yl)benzenesulfonamide]
39 | > 10000 nM | Cc1ccc(NS(=O)(=O)c2ccc(Oc3cccc(Cl)c3C#N)cc2)nc1 [Example 221, 4-(3-chloro-2-cyanophenoxy)-N-(5-methylpyridin-2-yl)benzenesulfonamide]
40 | > 10000 nM | N#Cc1c(Cl)cccc1Oc1ccc(S(=O)(=O)Nc2ncccn2)cc1 [Example 222, 4-(3-chloro-2-cyanophenoxy)-N-(pyrimidin-2-yl)benzenesulfonamide]
41 | > 10000 nM | N#Cc1c(Cl)cccc1Oc1ccc(S(=O)(=O)Nc2cnccn2)cc1 [Example 223, 4-(3-chloro-2-cyanophenoxy)-N-(pyrazin-2-yl)benzenesulfonamide]
42 | > 10000 nM | N#Cc1cc(S(=O)(=O)Nc2ccc(F)cn2)ccc1Oc1ccc(N)cc1 [Example 224, 4-(4-aminophenoxy)-3-cyano-N-(5-fluoropyridin-2-yl)benzenesulfonamide]
